From PubChem BioAssay AID743473 (The Scripps Research Institute Molecular Screening Center, 2014)

Columns and labels:
Experiment in all cases: inhibition of MMP and meprin peptide cleavage – biochemical, QFRET, MMP1/2/8/9/10/13/14, Meprin A/B, selectivity assay for ADAM10 and ADAM17 inhibitor project, late-stage follow-up (AID 743473)
[1] = target: Collagenase 3 (Homo sapiens) (UniProt P45452); conditions: MCA fluorescence, metalloprotease panel, MMP13
MMP10 = conditions: MCA fluorescence, metalloprotease panel
MMP14 = conditions: MCA fluorescence, metalloprotease panel
MMP1 = conditions: MCA fluorescence, metalloprotease panel
MMP2 = conditions: MCA fluorescence, metalloprotease panel
MMP8 = conditions: MCA fluorescence, metalloprotease panel
MMP9 = conditions: MCA fluorescence, metalloprotease panel
Meprin A = conditions: MCA fluorescence, metalloprotease panel
Meprin B = conditions: MCA fluorescence, metalloprotease panel

Row | SMILES | IC50 [1] [µM] | IC50 (MMP10) [µM] | IC50 (MMP14) [µM] | IC50 (MMP1) [µM] | IC50 (MMP2) [µM] | IC50 (MMP8) [µM] | IC50 (MMP9) [µM] | IC50 (Meprin A) [µM] | IC50 (Meprin B) [µM]
1 | CCOc1ccc(NC(=O)CC2SC(=O)N(c3ccccc3)C2=O)cc1 (stereo unspecified) | 35.8 | 28.6 | 36.9 | 75 | 4.7 | 1.6 | 3 | > 100 | > 100
2 | O=C(O)CCC(=O)c1c[nH]c2ccccc12 | > 100 | > 100 | > 100 | > 100 | > 100 | > 100 | > 100 | > 100 | > 100
3 | COc1cccc(C(=O)NNC(=O)C(=O)Nc2ccc(C)c(Cl)c2)c1 | > 100 | > 100 | > 100 | > 100 | > 100 | > 100 | > 100 | > 100 | > 100
4 | O=C1NC(=O)C(Cc2ccc(Cl)cc2)(c2ccccc2)N1 (stereo unspecified) | > 100 | > 100 | > 100 | 18.5 | > 100 | 6.4 | > 100 | > 100 | > 100
